Reference: patent US5206238A, “Cholecystokinin antagonists” (Merck & Co., Inc., priority 1992, dated 1993)

How the values were obtained:
humans = conditions: reported studies; cited from earlier work
Sprague Dawley rats [1] = conditions: cited from earlier work
Sprague Dawley rats [2] = test: exploratory/locomotor activity in automated activity cages; assay type: in vivo, rat
Method: B. The effects of CCK-8 and compound A on the exploratory behavior of the rat were examined in automated activity cages and by direct observation. […] [See Crawley, Pharm. Biochem & Behav. 20, 23-27 (1984).]
Male Sprague Dawley rats were injected ([…].) with CCK-8 and immediately placed in automated activity cages. Activity was measured for 30 minutes past injection.
Male SD rats were injected (s.c.) with the CCK antagonist compound A (0.0001-10 mg/kg) and immediately placed in the automated activity cages.

rats = test: direct observation of motoric behaviors in a novel environment (perspex cage); assay type: in vivo, rat; conditions: 0.1 mg/kg, 15 minute period 15 minutes after treatment
Method: In order to assess further the effect of Compound A on exploration in a novel environment, the motoric hehaviors of rats placed in a perspex cage was recorded by direct observation for a 15 minute period 15 minutes after treatment with Compound A.
Experimenters (unaware of the treatments the animals had received) recorded the frequency and duration of rearing, sniffing, grooming and cage crossing using a keypad interfaced to a BBC microcomputer.

DBA2 mice [3] = test: black/white exploration test (animal model of anxiety); assay type: in vivo; conditions: for active dose range: anxiolytic properties in mice
Source text: The black/white exploration test [Crawley et al. Pharmacology, Biochemistry and Behav. 13, 167 (1980)] is a simple animal model of anxiety. Rodents placed in a two compartment box which consists of a brightly lit, white painted side and a dimly lit, black painted side, display a marked preference for the black side of the apparatus. This behavior is caused by the aversive properties of the brightly lit, white painted section. Classical anxiolytic drugs [such as diazepam, see Crawley, supra] and novel anxiolytic drugs [such as 5HT3 antagonists, see Jones et al. Br. J. Pharm.
A. Naive male DBA2 mice (25-30) were housed on a reversed light/dark cycle and tested during the dark phase of the cycle under dim red light. The apparatus consisted of an open topped box (40 cm long×27 cm wide×27 cm high) divided into a small area (2/5) and a large area (3/5) by a partition that extended 20 cm above the walls. There was a 7.5×7.5 cm opening in the partition at floor level. The small compartment was painted black and the large compartment white. The floor of each compartment was marked into 9 cm squares. The white compartment was illuminated by a 100 W tungsten bulb 17 cm above the box and the black compartment by a similarly placed 60 W red bulb.
Animals that had been injected with drug or vehicle were placed individually into the center of the white area and their behavior observed during a 5 minute period by remote video recording. Four behavioral parameters were recorded every minute: the number of exploratory rears in the white and black sections, the number of line crossings in the black and white sections, the number of transitions between the two sections and the time spent in the black and white sections. Animals were tested in treatment groups of 8-10 and vehicle controls were run on each test day. Data were analysed by ANOVA and Dunnetts test.

DBA2 mice [4] = conditions: rodents, literature (Crawley); cited from earlier work

For CCK-4, the induction of panic (humans) is given as “induce panic”.

For CNC1=Nc2ccc(Cl)cc2C(c2ccccc2)=[N+]([O-])C1 [chlordiazepoxide], the “spontaneous locomotor activity in a novel environment” value (Sprague Dawley rats [1]; literature (McElroy et al.)) is given as “increases spontaneous locomotor activity”.

In the case of “CCK-8: carboxylterminal octapeptide of CCK-33, a naturally-occurring neuropeptide and the minimum fully active sequence”, the locomotor activity (Sprague Dawley rats [2]; 0.5-16 μg/kg i.p., 30 minutes past injection, novel environment) is given as “dose-dependently decreased”, the “exploratory behavior in a novel environment” value (Sprague Dawley rats [1]; exogenous CCK-8, literature (Crawley)) is given as “decreases exploratory behavior” and the induction of panic (humans) is given as “induced gastrointestinal effects but not panic symptoms”.

With CN1C(=O)[C@@H](NC(=O)c2cc3ccccc3[nH]2)N=C(c2ccccc2)c2ccccc21 [Compound A, 3(S)-(-)-1,3-dihydro-3-(2-indolecarbonylamino)-1-methyl-5-phenyl-2H-1,4-benzodiazepin-2-one] the cage crossing (rats) was “significantly increased”, the rearing (rats) was “significantly increased” and the sniffing (rats) was “significantly increased”. The “habituation and period of exploratory activity” value (Sprague Dawley rats [2]; 0.0001-10 mg/kg s.c.) was “delayed habituation and prolonged the period of exploratory activity”, the “levels of activity at 25 minutes” value (Sprague Dawley rats [2]; 0.1 mg/kg s.c., 25 minutes) was “significantly above controls” and the “effect on activity at 25 minutes” value (Sprague Dawley rats [2]; higher and lower doses than 0.1 mg/kg s.c. (bell-shaped dose response)) was “no significant effect”. For the same molecule, the “preference for locomotion (line crossings) in the black side” value (DBA2 mice [3]; 0.5, 5.0 and 500 ug/kg, male DBA2 mice) was “abolished”, the “difference in time spent in the black and white side” value (DBA2 mice [3]; 5.0 and 500 ug/kg, male DBA2 mice) was “abolished” and the active dose range (DBA2 mice [3]) was 0.05 to 5.0 µg/kg. For the same molecule, the “preference for rearing in the black side” value (DBA2 mice [3]; doses of 0.05, 0.5, 5.0 and 500 ug/kg, male DBA2 mice) was “significantly decreased”.

For CN1C(=O)CN=C(c2ccccc2)c2cc(Cl)ccc21 [diazepam], the “preference of the animal for the black dimly lit side” value (DBA2 mice [4]) is given as “decrease the preference”.

In the case of Cc1cccc(NC(=O)N[C@@H]2N=C(c3ccccc3)c3ccccc3N(C)C2=O)c1 [Compound B, (R)-N-(2,3-dihydro-1-methyl-2-oxo-5-phenyl-1H-1,4-benzodiazepin-3-yl)-N'-(3-methylphenyl)urea], the active dose range (DBA2 mice [3]) is reported as 0.005 to 0.05 µg/kg, the “difference in time spent in the black and white side” value (DBA2 mice [3]; dose of 0.005 ug/kg, male DBA2 mice) is reported as “decreased” and the “preference for rearing in the black side” value (DBA2 mice [3]; dose of 0.05 ug/kg, male DBA2 mice) is reported as “abolished”.
